Measurements as given in US20160313301A1, “METHOD FOR PREDICTING ANTITUMOR EFFICACY OF HSP90 INHIBITOR IN CANCER TREATMENT” (NIPPON KAYAKU KABUSHIKI KAISHA, priority 2013, published 2016).

Assays:
[1] = tested on: client proteins and HSP90-related proteins in SK-OV-3 tumor; assay: Immunoblot: change in expression amount of proteins in SK-OV-3 tumor after administration; format: in vivo, human; details: 40 mg/kg tail vein
Method: (§1) Thirty micrograms of total protein was subjected to electrophoresis in 8% acrylamide gel. Then, the protein was transferred onto a PVDF membrane at a voltage of 100 V for 60 min at 4 °C. The PVDF membrane on which the protein had been transferred was blocked in TBS-Tween (0.1%) containing 5% milk at normal temperature for 60 min, followed by incubating with each of primary antibodies described below overnight at 4 °C. • Primary antibody (supplier, product number, dilution ratio, exposure time) • EGFR (Santa Cruz, sc-003, 1:500, 1 min) • HER2 (Santa Cruz, sc-284, 1:2000, 5 sec) • HER3 (Santa Cruz, sc-285, 1:400, 1 min) • Met (Santa Cruz, sc-161, 1:500, 5 min) • IGF-1R (Cell Signaling, #3027, 1:500, 15 sec) • Raf-1 (Santa Cruz, sc-133, 1:300, 5 min) • Stat3 (BD Transduction Laboratory, 610189, 1:500, 15 sec) • pAkt (Cell Signaling, #4058S, 1:500, 1 min) • Akt (Cell Signaling, #4691S, 1:2000, 15 sec) • pERK (Santa Cruz, sc-16982-R, 1:500, 1 min) • ERK (Invitrogen, 44-654G, 1:1000, 15 sec) • mTOR (Cell Signaling, #2983S, 1:500, 15 sec) • MEK (Cell Signaling, #9122S, 1:500, 1 min) • HSP90 (Enzo Life Science, SPA-830, 1:500, 15 sec) • HSP70 (Enzo Life Science, SPA-810, 1:2000, 15 sec) • Actin (Santa Cruz, sc-8432/HRP, 1:300, 5 min)
(§2) After incubation, the blot membrane was washed with TBS-Tween (0.1%) at normal temperature for 10 min three times to thereby remove excessive primary antibodies. Then, the membrane was incubated with an appropriate secondary antibody (anti-rabbit IgG HRP conjugate or anti-mouse IgG HRP conjugate) at normal temperature for 60 min. The membrane was washed with TBS-Tween (0.1%) at normal temperature for 10 min three times to thereby remove excessive secondary antibodies. Then, the membrane was incubated with ECL Western Blotting Detection Reagents (GE Healthcare) for 2 min, followed by exposing to an X-ray film. Thus, the signal of the intended protein was detected.
(§3) Tumors to be transplanted derived from human ovarian cancer cell lines SK-OV-3 and TOV-21G were prepared in the same manner as in Example 1.
(§4) Protein extraction liquid was obtained from each tumor as follows. The human ovarian cancer tumors maintained by passage in SCID mice were transplanted subcutaneously to the dorsums of SCID mice with trocars. When the tumor volume of each tumor reached about 300 mm^3, the triazole (A-1) synthesized as the HSP90 inhibitor in Synthetic Example 1 was administered into a tail vein of each of the mice at a dose of 40 mg/kg in the same manner as in Example 1. The tumors were removed before and 4 and 24 hours after administration. At each time point, the tumors were removed from three mice for the SK-OV-3 tumor and two mice for the TOV-21G tumor. Protein extraction liquids were obtained in the same manner as in Example 1. The total protein amount in each of the extraction liquids was quantified in the same manner as in Example 1.
(§5) The immunoblot method was used to verify change in expression amounts of the client proteins and the HSP90-related proteins in the SK-OV-3 and TOV-21G tumors to which the triazole compound (A-1) had been administered, in the same manner as in Example 1. The types and dilution ratios of primary antibodies and secondary antibodies used were the same as in Example 1.

[2] = tested on: client proteins and HSP90-related proteins in TOV-21G tumor; assay: Immunoblot: change in expression amount of proteins in TOV-21G tumor after administration; format: in vivo, human; details: 40 mg/kg tail vein
Method: as §1, §2, §3, §4, §5

[3] = SK-OV-3 tumor after administration
[4] = SK-OV-3 tumor, 4 hours after administration

CC(C)c1cc(-c2n[nH]c(=O)n2-c2ccc(CN3CCN(C)CC3)cc2)c(O)cc1O [A-1, 5-(2,4-dihydroxy-5-isopropyl-phenyl)-4-[4-(4-methyl-piperazin-1-ylmethyl)-phenyl]-2,4-dihydro-[1,2,4]triazol-3-one] was tested. Which “expression amount of total Akt” value [1, 3] did it give?
The value was “not changed”.

What about the “expression amount of total ERK” value [1, 3] of the same molecule?
Its value is “not changed”.

What about the “expression level of EGFR” value [1, 4] of the same molecule?
The value was “significantly decreased”.

And the “expression level of IGF-1R” value [1, 4]?
Its value is “significantly decreased”.

And the “expression level of Met” value [1, 4]?
Its value is “significantly decreased”.

And the “expression level of mTOR” value [1, 4]?
The value was “significantly decreased”.

And the “expression level of pAkt” value [1, 4]?
Its value is “significantly decreased”.

And the “expression level of pERK” value [1, 4]?
The value was “significantly decreased”.

What about the “expression amount of total Akt” value [2] of the same molecule?
The value was “not changed”.

And the “expression amount of total ERK” value [2]?
The value was “not changed”.

What about the “expression level of EGFR” value [2] of the same molecule?
The value was “decreased”.

What about the “expression level of HER2” value [2] of the same molecule?
Its value is “decreased”.

What about the “expression level of IGF-1R” value [2] of the same molecule?
Its value is “decreased”.

And the “expression level of Met” value [2]?
The value was “decreased”.

What about the “expression level of mTOR” value [2] of the same molecule?
Its value is “decreased”.

And the “expression level of pAkt” value [2]?
Its value is “decreased”.
